The target of this assay is cathepsin B (Homo sapiens, UniProt P07858). Kind of assay: Incubation of Agent 6 with cathepsin B; product read by colour, MSOT and absorbance. It is filed as biochemical. To be noted: pH 6.8, 37° C., overnight. As for the experimental part:
We incubated 2.22 mg/mL ([…], 0.1 mL) of Agent 6 with 2 units of cathepsin B at pH 6.8 and at 37° C. overnight. Although cathepsin B is typically considered to be an endoprotease, this enzyme can work as an exoprotease at lower pH relative to physiological pH 7.4. Also, the extracellular tumor microenvironment is known to be acidic, so that pH 6.8 is a better representation of tumor conditions.
Other samples of were prepared at 1.66, 1.11, 0.84, and 0.55 mg/mL. These solutions were inserted into a customized phantom for a multi spectral optoacoustic imaging instrument (MSOT; also known as photoacoustic imaging) (InVision instrument, iThera Medical). FIG. 12A-FIG. 12D present MSOT or absorbance spectra data for the various concentrations.
The phantoms were imaged at 700-900 nm absorbance wavelengths in 2 nm steps. (FIG. 12A). The samples were also analyzed with a spectrofluorometer with absorbance through the same wavelength range (FIG. 12B), which matched the spectral profile and relative signal intensities of the MSOT spectra. The spectra were broad and featureless, which is expected for a melanin-based product. The signal to noise ratio (SNR) scaled with the concentration of the reactant, providing validation that the MSOT and absorbance signals were derived from the product and was not an artifact of the solution or imaging instrument (FIG. 12C, FIG. 12D).

With `CC(=O)NC(Cc1ccccc1)C(=O)NC(CCCCN)C(=O)Nc1ccc(COc2cc3cc[nH]c3cc2O)cc1` (centres unmarked) [Agent 6], the “colour of the resulting solution (indicating melanin produced after cleavage by cathepsin B)” value (2.22 mg/mL Agent 6, 2 units of cathepsin B) is “light gray color”. Besides, the “cleavage by cathepsin B to a melanin-based product detectable by MSOT” value (MSOT 700-900 nm, preliminary results) was “cleaved by cathepsin B to create a melanin-based product that can be detected by MSOT”.

Values taken from US12576166B2, “Contrast agents for detection of enzyme activities based on melanin synthesis” (BOARD OF REGENTS, THE UNIVERSITY OF TEXAS SYSTEM, priority 2020, dated 2026).
